According to article PMC4894032 (European journal of medicinal chemistry, 2016):

Tested on: carrageenan-induced mouse paw edema
Assay: Carrageenan-induced paw edema
Format: in vivo, mouse (female C57BL/6J)
Settings: carrageenan-induced mouse paw inflammation; IIn treated

## CN(Cc1ccccn1)Cc1cccc(CN(C)Cc2ccccn2)n1 [IIn, N,N′-(Pyridine-2,6-diylbis(methylene))bis(N-methyl-1-(pyridin-2-yl)methanamine)]
  Histological analysis of paw tissue (H&E): significantly attenuated the mouse paw inflammation and damage
